Assay results: ChEMBL document CHEMBL3608294, “Epoxylathyrol Derivatives: Modulation of ABCB1-Mediated Multidrug Resistance in Human Colon Adenocarcinoma and Mouse T-Lymphoma Cells” (J Nat Prod, 2015); call rule not given here

What was measured:
[1] = target: T1, ATP-dependent translocase ABCB1 (Homo sapiens, UniProt P08183); experiment: Inhibition of ABCB1 in multidrug resistant human COLO320 cells assessed as fluorescence activity ratio at 2 uM incubated for 10 mins by flow cytometry based rhodamine-123 accumulation assay (reference value: 0.62)
T1 sequence (P08183 whole entry): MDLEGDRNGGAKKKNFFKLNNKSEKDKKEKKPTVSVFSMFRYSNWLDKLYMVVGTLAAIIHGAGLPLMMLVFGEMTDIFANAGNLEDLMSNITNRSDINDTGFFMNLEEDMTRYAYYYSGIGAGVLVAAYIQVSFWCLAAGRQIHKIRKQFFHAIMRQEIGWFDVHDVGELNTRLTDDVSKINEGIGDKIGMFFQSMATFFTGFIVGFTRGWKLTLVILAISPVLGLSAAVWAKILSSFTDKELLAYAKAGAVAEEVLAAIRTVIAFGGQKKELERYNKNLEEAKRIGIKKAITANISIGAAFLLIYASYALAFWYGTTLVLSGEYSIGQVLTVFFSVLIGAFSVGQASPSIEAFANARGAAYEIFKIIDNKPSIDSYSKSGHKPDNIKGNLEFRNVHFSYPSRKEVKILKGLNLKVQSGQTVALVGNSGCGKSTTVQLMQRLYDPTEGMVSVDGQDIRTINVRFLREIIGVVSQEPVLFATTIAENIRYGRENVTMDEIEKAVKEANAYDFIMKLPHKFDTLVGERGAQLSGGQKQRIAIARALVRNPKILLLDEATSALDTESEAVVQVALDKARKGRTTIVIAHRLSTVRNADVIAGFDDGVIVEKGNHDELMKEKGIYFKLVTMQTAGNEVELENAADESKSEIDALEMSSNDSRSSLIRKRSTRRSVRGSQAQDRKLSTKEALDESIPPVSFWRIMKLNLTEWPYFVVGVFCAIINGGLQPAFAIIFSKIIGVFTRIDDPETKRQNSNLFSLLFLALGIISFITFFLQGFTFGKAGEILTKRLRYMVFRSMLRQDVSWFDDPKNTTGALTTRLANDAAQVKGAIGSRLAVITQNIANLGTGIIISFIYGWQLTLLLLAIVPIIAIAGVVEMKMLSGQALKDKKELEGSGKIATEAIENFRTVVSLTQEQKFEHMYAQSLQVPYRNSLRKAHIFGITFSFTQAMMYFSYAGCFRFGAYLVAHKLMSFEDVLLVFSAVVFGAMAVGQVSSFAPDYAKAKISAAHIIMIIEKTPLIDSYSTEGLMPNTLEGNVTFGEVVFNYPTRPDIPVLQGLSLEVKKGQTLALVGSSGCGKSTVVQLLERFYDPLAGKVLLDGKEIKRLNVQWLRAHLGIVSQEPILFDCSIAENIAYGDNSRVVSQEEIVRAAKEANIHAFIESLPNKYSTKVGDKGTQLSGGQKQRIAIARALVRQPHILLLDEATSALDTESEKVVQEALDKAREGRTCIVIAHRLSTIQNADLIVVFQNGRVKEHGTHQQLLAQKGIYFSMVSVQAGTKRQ

[2] = target: T1, ATP-dependent translocase ABCB1; experiment: Inhibition of ABCB1 in multidrug resistant human COLO320 cells assessed as fluorescence activity ratio at 20 uM incubated for 10 mins by flow cytometry based rhodamine-123 accumulation assay (reference value: 0.62)
[3] = Antiproliferative activity against multidrug resistant human COLO320 cells incubated for 72 hrs by MTT assay; type: functional; details: COLO 320, 72 h
L5178Y [4] = experiment: Cytotoxicity against human ABCB1 expressing mouse L5178Y cells incubated for 24 hrs by MTT assay; type: functional, cell-based
[5] = target: T1, ATP-dependent translocase ABCB1; experiment: Inhibition of human ABCB1 expressed in mouse L5178Y cells assessed as fluorescence activity ratio at 20 uM incubated for 10 mins by flow cytometry based rhodamine-123 accumulation assay (reference value: 0.78); type: cell-based
[6] = target: T1, ATP-dependent translocase ABCB1; experiment: Inhibition of ABCB1 in multidrug resistant human COLO320 cells assessed as fluorescence activity ratio at 0.2 uM incubated for 10 mins by flow cytometry based rhodamine-123 accumulation assay (reference value: 0.62)
[7] = Selectivity index, ratio of antiproliferative IC50 for chemosensitive human COLO205 cells to antiproliferative IC50 for multidrug resistant human COLO320 cells; type: functional, COLO 205
L5178Y [8] = experiment: Selectivity index, ratio of antiproliferative IC50 for wild type parental mouse L5178Y cells to antiproliferative IC50 for human ABCB1 expressing mouse L5178Y cells; type: functional
L5178Y [9] = experiment: Cytotoxicity against chemosensitive wild type parental mouse L5178Y cells incubated for 24 hrs by MTT assay; type: functional, cell-based
[10] = Selectivity index, ratio of cytotoxic IC50 for chemosensitive human COLO205 cells to cytotoxic IC50 for multidrug resistant human COLO320 cells; type: functional, COLO 205
[11] = Cytotoxicity against multidrug resistant human COLO320 cells incubated for 24 hrs by MTT assay; type: functional, cell-based; details: COLO 320, 24 h
COLO 205 = experiment: Cytotoxicity against chemosensitive human COLO205 cells incubated for 24 hrs by MTT assay; type: functional, cell-based; details: COLO 205, 24 h
[12] = target: T1, ATP-dependent translocase ABCB1; experiment: Inhibition of human ABCB1 expressed in mouse L5178Y cells assessed as fluorescence activity ratio at 2 uM incubated for 10 mins by flow cytometry based rhodamine-123 accumulation assay (reference value: 0.78); type: cell-based
L5178Y [13] = experiment: Selectivity index, ratio of cytotoxic IC50 for wild type parental mouse L5178Y cells to cytotoxic IC50 for human ABCB1 expressing mouse L5178Y cells; type: functional
[14] = target: T1, ATP-dependent translocase ABCB1; experiment: Inhibition of human ABCB1 expressed in mouse L5178Y cells assessed as fluorescence activity ratio at 0.2 uM incubated for 10 mins by flow cytometry based rhodamine-123 accumulation assay (reference value: 0.78); type: cell-based
L5178Y [15] = experiment: Antiproliferative activity against chemosensitive wild type parental mouse L5178Y cells incubated for 72 hrs by MTT assay; type: functional, cell-based
[16] = target: T1, ATP-dependent translocase ABCB1; experiment: Inhibition of human ABCB1 expressed in mouse L5178Y cells assessed as potentiation of 2 mg/ml doxorubicin-induced cytotoxicty by measuring combination index at 5:1 compound to doxorubicin ratio incubated for 48 hrs by MTT assay; type: cell-based
[17] = Antiproliferative activity against chemosensitive human COLO205 cells incubated for 72 hrs by MTT assay; type: functional, cell-based; details: COLO 205, 72 h
L5178Y [18] = experiment: Antiproliferative activity against human ABCB1 expressing mouse L5178Y cells incubated for 72 hrs by MTT assay; type: functional, cell-based
[19] = target: T1, ATP-dependent translocase ABCB1; experiment: Inhibition of human ABCB1 expressed in mouse L5178Y cells assessed as potentiation of 2 mg/ml doxorubicin-induced cytotoxicty at 6:1 compound to doxorubicin ratio incubated for 48 hrs by MTT assay; type: cell-based
[20] = target: T1, ATP-dependent translocase ABCB1; experiment: Activation of human ABCB1 expressed in Sf9 cell membrane vesicles assessed as inorganic phosphate release at 0.8 uM to 100 uM using MgATP by colorimetric ATPase assay
[21] = target: T1, ATP-dependent translocase ABCB1; experiment: Inhibition of human ABCB1 expressed in mouse L5178Y cells assessed as potentiation of 2 mg/ml doxorubicin-induced cytotoxicty by measuring combination index at 4:1 compound to doxorubicin ratio incubated for 48 hrs by MTT assay; type: cell-based

| Structure (SMILES) | Ratio [1] | Ratio [2] | Ratio [5] | Ratio [6] | Ratio [12] | Ratio [14] | IC50 [3] [µM] | IC50 (L5178Y [4]) [µM] | Ratio IC50 [7] | Ratio IC50 (L5178Y [8]) | IC50 (L5178Y [9]) [µM] | Ratio IC50 [10] | IC50 [11] [µM] | IC50 (COLO 205) [µM] | Ratio IC50 (L5178Y [13]) | IC50 (L5178Y [15]) [µM] | CI [16] | IC50 [17] [µM] | IC50 (L5178Y [18]) [µM] | further results |
| --- | --- | --- | --- | --- | --- | --- | --- | --- | --- | --- | --- | --- | --- | --- | --- | --- | --- | --- | --- | --- |
| C/C1=C\[C@@H]2[C@H](CC[C@@](C)(O)[C@H](O)[C@H]3[C@@H](OC(=O)c4ccccc4)[C@@H](C)C[C@]3(O)[C@H]1O)C2(C)C | 1.37 | 4.29 | 33.19 |  | 1.45 |  | 37.1 | > 100 | 0.84 |  | > 100 | >1.9 | 52.7 | > 100 |  | > 100 |  | 30.4 | > 100 | CI [19]: 0.23 |
| CC(=O)O[C@@H]1[C@@H]2[C@@H](OC(C)=O)[C@](C)(OC(C)=O)CC[C@H]3[C@@H](/C=C(\C)[C@H](OC(C)=O)[C@@]2(OC(C)=O)C[C@@H]1C)C3(C)C | 2.76 | 5.98 | 51.34 |  | 11.37 |  | > 100 | > 100 |  |  | > 100 | 0.96 | 51.4 | 49.1 |  | > 100 | 0.205 | > 100 | > 100 |  |
| C/C1=C\[C@@H]2[C@H](CC[C@]3(CO3)[C@H](OC(=O)c3ccc(N(C)C)cc3)[C@H]3[C@@H](OC(=O)c4ccc(N(C)C)cc4)[C@@H](C)C[C@]3(O)C1=O)C2(C)C | 3.07 | 12.31 | 56.81 | 1.02 | 8.03 | 1.38 | 21.3 | 48.4 | 0.8 | 0.63 | 33.9 | 0.62 | 36.2 | 22.5 | 0.7 | 28.8 | 0.172 | 17.2 | 45.7 |  |
| COc1cccc(C(=O)O[C@@H]2[C@@H]3[C@@H](OC(=O)c4cccc(OC)c4)[C@]4(CC[C@H]5[C@@H](/C=C(\C)C(=O)[C@@]3(O)C[C@@H]2C)C5(C)C)CO4)c1 | 9.1 | 15.4 | 63.13 | 3.13 | 60.62 | 10.45 | > 100 | > 100 |  | 0.46 | 42.3 |  | > 100 | > 100 | <0.42 | 24.5 | 0.097 | > 100 | 52.8 | Activity [20]: Active |
| CO[C@H]1[C@@H]2[C@H](CC[C@]3(COC(C)=O)O[C@@H]3[C@H]3[C@@H](OC(C)=O)[C@@H](C)C[C@]3(O)C(=O)[C@@H]1C)C2(C)C | 1.1 | 2.25 | 2.07 |  | 1.16 |  | 65.8 | > 100 | >1.98 |  | > 100 |  | > 100 | > 100 |  | > 100 |  | > 100 | > 100 | CI [19]: 0.214 |
| C/C1=C\[C@@H]2[C@H](CC[C@]3(CO3)[C@H](OC(=O)c3ccc4ccccc4c3)[C@H]3[C@@H](OC(=O)c4ccc5ccccc5c4)[C@@H](C)C[C@]3(O)C1=O)C2(C)C | 5.83 | 5.06 | 66.52 | 2.54 | 58.84 | 13.67 | > 100 | > 100 |  |  | > 100 |  | > 100 | > 100 |  | > 100 |  | > 100 | > 100 | CI [21]: 0.233 |

More lines, main results first:

| Ratio [1] | Ratio [2] | Ratio [5] | Ratio [6] | Ratio [12] | Ratio [14] | Structure (SMILES) | IC50 [3] [µM] | IC50 (L5178Y [4]) [µM] | Ratio IC50 [7] | Ratio IC50 (L5178Y [8]) | IC50 (L5178Y [9]) [µM] | Ratio IC50 [10] | IC50 [11] [µM] | IC50 (COLO 205) [µM] | Ratio IC50 (L5178Y [13]) | IC50 (L5178Y [15]) [µM] | CI [16] | IC50 [17] [µM] | IC50 (L5178Y [18]) [µM] | further results |
| --- | --- | --- | --- | --- | --- | --- | --- | --- | --- | --- | --- | --- | --- | --- | --- | --- | --- | --- | --- | --- |
| 5.59 | 6.86 | 83.29 | 3 | 86.39 | 3.55 | C/C1=C\[C@@H]2[C@H](CC[C@]3(CO3)[C@H](OC(=O)c3cccc(C)c3)[C@H]3[C@@H](OC(=O)c4cccc(C)c4)[C@@H](C)C[C@]3(O)C1=O)C2(C)C | 15.7 | > 50 | 0.98 | 1.44 | 26.4 | >2.09 | 23.9 | > 50 | <0.53 | 41.8 | 0.066 | 15.4 | 29 |  |
| 2.94 | 5.78 | 71.12 | 1.48 | 43.35 | 2.33 | C/C1=C\[C@@H]2[C@H](CC[C@@](C)(O)[C@H](O)[C@H]3[C@@H](OC(=O)c4ccccc4)[C@@H](C)C[C@]3(O)[C@H]1OC(=O)c1ccccc1)C2(C)C | 30.5 | 50.7 | >3.28 | <0.39 | 52.4 | 0.88 | 51.2 | 44.9 | 1.03 | 38.5 |  | > 100 | > 100 |  |
| 8.25 | 11.56 | 41.81 | 2.83 | 39.3 | 9.87 | CO[C@H]1[C@@H]2[C@H](CC[C@]3(COC(=O)c4ccc(C(F)(F)F)cc4)O[C@@H]3[C@H]3[C@@H](OC(=O)c4ccc(C(F)(F)F)cc4)[C@@H](C)C[C@]3(O)C(=O)[C@@H]1C)C2(C)C | 9.3 | 50.9 | 0.88 | 0.78 | 48 |  |  |  | 0.94 | 33.3 | 0.054 | 8.2 | 37.6 |  |
